Test results from US10927348B2, “Human adipose tissue white and ‘brown-on-white’ progenitors for reconstructive and metabolic therapies” (University of Massachusetts, priority 2014, dated 2021).
“Also recorded” adds a separate entry of the source. Counter-ions that a name gives are not always drawn.

System: differentiated HACAPS
Test: RT-PCR gene expression in differentiated HACAPS exposed to forskolin or isoproterenol
Type: cell-based, human
Conditions: isoproterenol for 6 hours after adipogenic differentiation, hydrochloride

## CC(C)NCC(O)c1ccc(O)c(O)c1 (stereo not shown) [isoproterenol, Isoproterenol hydrochloride]
  UCP1 mRNA expression: acute increase; also recorded: pronounced increase
